SMILES strings stand for the structures. A value given as a limit tells only on which side of the number the result lay.

The target of one assay is T1, mMC1r (Mus musculus, UniProt Q01727).
T1 construct: endogenous in cells; host or cells: B16-F1
Description: Binding of iodine-125 labeled NDP-α-MSH, B16-F1 cells, mMC1r. The procedure:
(§1) Melanocortin receptor binding and function of Compound 7.1 was tested. Ki binding values (nM) were calculated utilizing the percent inhibit of the binding of iodine-125 labeled NDP-α-MSH against B16-F1 cells for mMC1r, and human recombinant CHO cells for hMC3r, hMC4r and hMC5r, with the inhibition constant calculated using the Cheng Prusoff equation. Functional results (EC50 and efficacy) were calculated utilizing cAMP assays with NDP-α-MSH for mMC1r, hMC3r and hMC4r, ACTH for hMC2r, and α-MSH for hMC5r for agonist measures, with the same target cells for melanocortin receptors mMC1r, hMC3r, hMC4r and hMC5r, and human recombinant Cloudman M3 cells for hMC2r.

In assay [1] the target is T2, hMC3r (Homo sapiens, UniProt P41968).
T2 construct: expressed in transfected cells; host or cells: CHO
T2 sequence (P41968 whole entry): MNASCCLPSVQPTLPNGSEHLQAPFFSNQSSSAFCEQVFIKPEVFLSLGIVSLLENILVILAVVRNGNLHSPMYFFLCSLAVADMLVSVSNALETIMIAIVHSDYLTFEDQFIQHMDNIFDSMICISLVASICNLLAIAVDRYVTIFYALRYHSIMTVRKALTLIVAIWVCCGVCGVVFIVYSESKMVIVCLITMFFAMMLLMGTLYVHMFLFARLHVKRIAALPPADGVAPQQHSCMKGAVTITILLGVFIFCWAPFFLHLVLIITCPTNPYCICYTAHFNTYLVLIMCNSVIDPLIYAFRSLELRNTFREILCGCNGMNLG
Description: Binding of iodine-125 labeled NDP-α-MSH, human recombinant CHO cells, hMC3r. The procedure: as §1

The target of another assay is T3, hMC5r (Homo sapiens, UniProt P33032).
T3 construct: expressed in transfected cells; host or cells: CHO
T3 sequence (P33032 whole entry): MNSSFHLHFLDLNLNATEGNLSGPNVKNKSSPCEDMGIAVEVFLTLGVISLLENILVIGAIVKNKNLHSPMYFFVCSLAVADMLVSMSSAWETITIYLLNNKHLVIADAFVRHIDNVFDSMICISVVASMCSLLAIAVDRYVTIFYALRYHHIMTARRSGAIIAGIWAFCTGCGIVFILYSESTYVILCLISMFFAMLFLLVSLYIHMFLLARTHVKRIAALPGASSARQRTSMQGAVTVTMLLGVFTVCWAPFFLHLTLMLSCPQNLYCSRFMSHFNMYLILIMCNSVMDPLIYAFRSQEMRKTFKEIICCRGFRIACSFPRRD
Put plainly: Binding of iodine-125 labeled NDP-α-MSH, human recombinant CHO cells, hMC5r. The procedure:
as §1

Assay [2] deals with T2, hMC3r. Description: cAMP assay hMC3r (human recombinant CHO cells, NDP-α-MSH reference). Format: cell-based. The procedure: as §1
(In general: Changes in cAMP serve as a functional read-out for many G protein-coupled receptors.)

Assay [3] concerns Male mice homozygous for the obese spontaneous mutation, Lep^ob. Put plainly: Oral administration in leptin-deficient obese mice, body weight. Format: in vivo, mouse. The settings on record: 30 mg/kg twice daily for six days. The procedure:
Male mice homozygous for the obese spontaneous mutation, Lep^ob, with resulting leptin protein deficiency, were individually housed with free access to feed and drinking water. All animals were sham-dosed twice daily for five days prior to initial drug administration, utilizing a vehicle dose of 3.2% mannitol and […] tris(hydroxymethyl)aminomethane at pH 7.4. On day 6 a cohort of the mice received compound 7.1 dissolved into the vehicle twice daily for six consecutive days at a dose of 30 mg/kg. Body weight of animals was measured daily, with data analyzed as the percent change from baseline of each individual animal, where baseline was defined as the average weight during the first three days of sham dosing. The averaged percent change from baseline of a vehicle group was then subtracted from each value to correct for continued weight gain or other study-wide factors. The change in body weight is shown in FIG. 3 starting on study day 1, the first day of administration of compound 7.1.

Another assay has as its system C57Bl/6 DIO mice. Put plainly: Oral administration, feed intake and body weight in C57Bl/6 DIO mice (comparison with MC4r knockout). Format: in vivo, mouse. The procedure: Feed intake and body weight was evaluated in MCr4 knockout (MC4r−/−) mice (Jackson Laboratories) compared to C57Bl/6 DIO mice. […] Feed weights were taken at time 0, 2, 6 and 24 hours post lights out. […] The change in body weight is shown in FIG. 4 starting on study day 5, the first day of administration of compound 7.1. […] Additionally, there was a statistically significant mean difference, 2.8%, 95% Cl (1.281, 4.253), and p value <0.0001 between DIO mice receiving compound 7.1 and MC4r (−/−) receiving compound 7.1.

In assay [4] the target is T4, MC4r (Homo sapiens, UniProt P32245). Put plainly: Binding of iodine-125 labeled NDP-α-MSH, human recombinant CHO cells, hMC4r. On the set-up: expressed in transfected cells; host or cells: CHO. The procedure:
as §1

The target of assay [5] is T4, MC4r. Description: cAMP assay hMC4r (human recombinant CHO cells, NDP-α-MSH reference). Format: cell-based. On the set-up: expressed in transfected cells; host or cells: CHO. The procedure:
as §1

Assay [6] addresses T4, MC4r. Put plainly: Competitive inhibition binding assay, MC4r. Set-up: expressed in transfected cells; host or cells: HEK-293 (membrane homogenates). The settings on record: binding studies. The procedure: A competitive inhibition binding assay is performed using membrane homogenates prepared from HEK-293 cells that express recombinant hMC1ra, hMC4r, hMC3r, or hMC5r, and from B16-F10 mouse melanoma cells (containing endogenous MC1r). In the examples that follow, all values are for human recombinant receptors unless otherwise noted. Assays are performed in 96 well GF/B Millipore multiscreen filtration plates (MAFB NOB10) pre-coated with 0.5% bovine serum albumin (Fraction V). […] After incubation for 60 to 90 minutes at 37° C., the assay mixture is filtered and the membranes washed three times with ice-cold buffer. Filters are dried and counted in a gamma counter for bound radioactivity.
Maximal specific binding (100%) is defined as the difference in radioactivity (cpm) bound to cell membranes in the absence and presence of 1 μM NDP-α-MSH. […] Each assay is conducted in duplicate or triplicate and the actual mean values are described, with results less than 0% reported as 0%. Ki values for test compounds are determined using Graph-Pad Prism® curve-fitting software.
Competitive Binding Assay Using Eu-NDP-α-MSH. Alternatively, a competitive inhibition binding assay is performed employing Eu-NDP-α-MSH (PerkinElmer Life Sciences catalog No. AD0225) with determination by time-resolved fluorometry (TRF) of the lanthanide chelate. […] After incubation for 90 minutes at 37° C., the reaction was stopped by filtration over Acro Well 96-well filter plates (Pall Life Sciences). The filter plates were washed 4 times with 200 μL of ice-cold phosphate-buffered saline. DELFIA Enhancement solution (PerkinElmer Life Sciences) was added to each well. The plates were incubated on a shaker for 15 minutes and read at 340 nm excitation and 615 nm emission wavelengths. Each assay was conducted in duplicate and mean values were utilized. Ki values were determined by curve-fitting with Graph-Pad Prism® software using a one-site fixed-slope competition binding model.

T4 sequence (P32245 whole entry): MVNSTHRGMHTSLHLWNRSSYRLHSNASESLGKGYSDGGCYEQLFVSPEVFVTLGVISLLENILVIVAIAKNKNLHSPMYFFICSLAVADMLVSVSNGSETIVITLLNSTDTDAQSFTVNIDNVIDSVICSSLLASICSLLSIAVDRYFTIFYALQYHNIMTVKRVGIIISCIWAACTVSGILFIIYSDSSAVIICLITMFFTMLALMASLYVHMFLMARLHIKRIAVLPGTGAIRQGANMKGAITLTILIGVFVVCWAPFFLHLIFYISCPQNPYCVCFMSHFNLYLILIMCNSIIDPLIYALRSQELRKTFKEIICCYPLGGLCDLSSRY
T1 sequence (Q01727 whole entry): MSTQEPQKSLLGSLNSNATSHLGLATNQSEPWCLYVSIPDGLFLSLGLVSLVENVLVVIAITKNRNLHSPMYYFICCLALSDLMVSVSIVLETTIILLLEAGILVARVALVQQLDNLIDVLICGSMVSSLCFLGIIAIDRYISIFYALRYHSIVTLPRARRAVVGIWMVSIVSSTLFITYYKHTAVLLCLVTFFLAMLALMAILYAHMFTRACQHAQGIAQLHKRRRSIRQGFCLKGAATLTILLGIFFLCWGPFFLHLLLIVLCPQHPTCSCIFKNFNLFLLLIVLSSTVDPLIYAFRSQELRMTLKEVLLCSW

A word on the Ki: it is a dissociation constant, usually derived from enzyme kinetics or from competition with a known ligand. Broadly, the EC50 is the concentration that produces a half-maximal response. For `CC(=O)N1CCC(N(CC(C)C)N2CCN(C(=O)[C@@H](Cc3ccc(Cl)cc3)NC(=O)C(C)(C)N)CC2)CC1` [Compound 7.1, N-[(1R)-2-[4-[(1-acetyl-4-piperidyl)-isobutyl-amino]piperazin-1-yl]-1-[(4-chlorophenyl)methyl]-2-oxo-ethyl]-2-amino-2-methyl-propanamide], the Ki on mMC1r was 93 nM; at hMC3r [1], 1300 nM; at hMC5r it was 1200 nM; at MC4r [4], 14 nM; on MC4r [6], 5 nM. Moreover, the EC50 was greater than 1000 nM at hMC3r [2] and 6 nM on MC4r [5]. Besides, the “decrease in body weight compared to vehicle controls” value in [3] is on record as 4.8%. For the same compound, the “effect on body weight vs own vehicle group (in words)” value with C57Bl/6 DIO mice (30 mg/kg two daily administrations via oral gavage) is recorded as “significant body weight loss”. For the same compound, in the assay on C57Bl/6 DIO mice (6 and 24 hour timepoints, 30 mg/kg twice daily oral gavage), the “food consumption vs vehicle only (in words)” value is reported as “significantly decreased”.

Source of the values: patent US20210198201A1, “Orally Active Melanocortin Receptor-4 Compounds” (Palatin Technologies, Inc., priority 2018, published 2021).
